Here are results for 21 compounds from patent US20150225377A1, “VEGFR3 INHIBITORS” (CANCER THERAPEUTICS CRC PTY LIMITED, priority 2012, published 2015).

This test concerns the target T1, VEGFR3 cytoplasmic domain (Homo sapiens, UniProt P35916).
T1 construct: VEGFR3 cytoplasmic domain (amino acids 798-1298) was purchased as N-terminal GST-fusion protein; GST (N); purchased
Nature of the test: VEGFR3 biochemical assay (AlphaScreen). The settings on record: GST-VEGFR3 cytoplasmic domain, 500 μM ATP (modified form: His-fusion, 1 μM ATP). As for the experimental part: Compounds of the invention may be tested for in vitro activity in the following assay: A biotin labelled peptide is used as substrate (amino acid sequence: Biotin-[…]NH2). VEGFR3 cytoplasmic domain (amino acids 798-1298) was purchased as N-terminal GST-fusion protein (“the enzyme”). The 15 μL assay reactions are run in Greiner brand white 384-well low volume plates. All reactions contained 10 mM HEPES pH 7.4, 10 mM MgCl2, 0.01% (v/v) Tween-20, 50 μM Na3VO4, 0.01% (w/v) albumin from chicken egg white, 1 mM Dithiothreitol, 111 nM peptide substrate, 500 μM ATP, and 3.8 ng/reaction enzyme, with the enzyme being omitted from negative control reactions. Compounds were added in a volume of […] from dilution series prepared in DMSO, positive and negative control reactions receiving the same volume DMSO without compound. The plates were sealed with adhesive seals and incubated for 90 minutes at 30 degree Celsius. The reactions were stopped with the detection reagents added at the same time as follows: Product formation was quantified as amplified luminescence between PerkinElmer AlphaScreen™ beads, using Streptavidin-coated donor and anti-phosphotyrosine (P-Tyr-100) acceptor beads. To each reaction, 5 μL containing 10 mM HEPES pH 7.4, 25 mM NaCl, 100 mM EDTA, 0.01% (v/v) Tween-20, and 6.25 μg/mL of each bead type were added. Plates were incubated for 6 hours before being read on a PerkinElmer EnVision™ plate reader in HTS Alphascreen™ mode. IC50 values were obtained by calculating percent inhibition (% I) for each reaction relative to controls on the same plate (% I=(I-CN)/(CP-CN) where CN/CP are the averages of the negative/positive reactions, respectively), then fitting the % I data vs. compound concentration [I] to % I=(A+((B−A)/(1+((C/[I])̂D)))) where A is the lower asymptote, B is the upper asymptote, C is the IC50 value, and D is the slope factor.
The above assay was also run in a modified form in some cases (indicated below with *). In these cases, VEGFR3 cytoplasmic domain (amino acids 818-1177, lacking 949-1002 of UniProt accession number P35916) was expressed and purified as N-terminal Hexa-His-fusion protein (“the enzyme”), rather than using the N-terminal GST-fusion protein. The assay conditions were the same as above but with 1 μM ATP and 8 ng/reaction of the enzyme.
A general note: Bead proximity is the source of the signal in Alpha formats.

T1 sequence (P35916 798-1298 isoform P35916-1): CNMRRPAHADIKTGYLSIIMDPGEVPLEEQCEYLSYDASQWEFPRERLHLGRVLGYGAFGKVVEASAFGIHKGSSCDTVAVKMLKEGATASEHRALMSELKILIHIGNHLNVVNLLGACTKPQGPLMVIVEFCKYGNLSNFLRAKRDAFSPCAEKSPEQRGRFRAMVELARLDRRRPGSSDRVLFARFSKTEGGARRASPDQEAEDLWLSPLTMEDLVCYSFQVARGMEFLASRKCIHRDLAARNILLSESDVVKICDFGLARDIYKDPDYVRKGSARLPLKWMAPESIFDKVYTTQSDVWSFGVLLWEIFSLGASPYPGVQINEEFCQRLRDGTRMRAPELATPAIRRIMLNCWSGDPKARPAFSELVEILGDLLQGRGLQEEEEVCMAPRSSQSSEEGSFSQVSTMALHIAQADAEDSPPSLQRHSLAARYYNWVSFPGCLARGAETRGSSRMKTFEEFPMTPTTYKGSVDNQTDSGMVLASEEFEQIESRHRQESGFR

What is called IC50 is the point on the concentration scale where inhibition reaches its midpoint. Higher therefore signals weaker potency. In turn, `NC(=O)Cc1ccccc1CCc1ccnc(Nc2ccc(N3CCNCC3)cc2)n1` [Compound 1, 2-(2-(2-(2-((4-(piperazin-1-yl)phenyl)amino)pyrimidin-4-yl)ethyl)phenyl)acetamide] yielded an IC50 of 161 nM.

The compound `NC(=O)Cc1ccccc1CCc1nc(Nc2ccc(C3CCNCC3)c(F)c2)ncc1C(F)(F)F` [Compound 7, 2-(2-(2-(2-((3-Fluoro-4-(piperidin-4-yl)phenyl)amino)-5-(trifluoromethyl)pyrimidin-4-yl)ethyl)phenyl)acetamide] displayed an IC50 of 40 nM.

`CN1CCC(c2ccc(Nc3ncc(C(F)(F)F)c(CCc4ccccc4CC(N)=O)n3)cc2F)CC1` [Compound 8, 2-(2-(2-(2-((3-fluoro-4-(1-methylpiperidin-4-yl)phenyl)amino)-5-(trifluoromethyl)pyrimidin-4-yl)ethyl)phenyl)acetamide] showed an IC50 of 34 nM.

Turning to `CN1CCC(c2ccc(Nc3ncc(C(F)(F)F)c(CCc4ccc(F)cc4CC(N)=O)n3)cc2)CC1` [Compound 10, 2-(5-fluoro-2-(2-(2-((4-(1-methylpiperidin-4-yl)phenyl)amino)-5-(trifluoromethyl)pyrimidin-4-yl)ethyl)phenyl)acetamide], the IC50 turned out to be 76 nM. This IC50 lies about 2.2-fold higher than the previous one.

As for `CN1CCC(c2ccc(Nc3ncc(C(F)(F)F)c(CCc4ccccc4CC(N)=O)n3)cn2)CC1` [Compound 14, 2-(2-(2-(2-((6-(1-methylpiperidin-4-yl)pyridin-3-yl)amino)-5-(trifluoromethyl)pyrimidin-4-yl)ethyl)phenyl)acetamide], half-maximal inhibition (IC50) required 81 nM.

In turn, `NC(=O)Cc1ccc(F)cc1CCc1nc(Nc2ccc(C3CCNCC3)cc2)ncc1C(F)(F)F` [Compound 15, 2-(4-fluoro-2-(2-(2-((4-(piperidin-4-yl)phenyl)amino)-5-(trifluoromethyl)pyrimidin-4-yl)ethyl)phenyl)acetamide] returned an IC50 of 31 nM.

For `CN1CCC(c2ccc(Nc3ncc(C(F)(F)F)c(CCc4cc(C(F)(F)F)ccc4CC(N)=O)n3)cc2)CC1` [Compound 17, 2-(2-(2-(2-((4-(1-methylpiperidin-4-yl)phenyl)amino)-5-(trifluoromethyl)pyrimidin-4-yl)ethyl)-4-(trifluoromethyl)phenyl)acetamide], it took 67 nM to reach half-maximal inhibition (IC50). This IC50 is about 2.2-fold higher than that of the compound before.

In turn, `NC(=O)Cc1ccccc1CCc1nc(Nc2ccc(C3CNC3)cc2)ncc1C(F)(F)F` [Compound 20, 2-(2-(2-(2-((4-(azetidin-3-yl)phenyl)amino)-5-(trifluoromethyl)pyrimidin-4-yl)ethyl)phenyl)acetamide] registered an IC50 of 37 nM. This IC50 lies about 1.8-fold lower than the previous one.

`COc1cnc(Nc2ccc(C3CCNCC3)cc2)nc1CCc1ccccc1CC(N)=O` [Compound 23, 2-(2-(2-(5-methoxy-2-((4-(piperidin-4-yl)phenyl)amino)pyrimidin-4-yl)ethyl)phenyl)acetamide] gave an IC50 of 72 nM.

`NC(=O)Cc1cc(C(F)(F)F)ccc1CCc1nc(Nc2ccc(C3CCNCC3)cc2)ncc1C(F)(F)F` [Compound 25, 2-(2-(2-(2-((4-(piperidin-4-yl)phenyl)amino)-5-(trifluoromethyl)pyrimidin-4-yl)ethyl)-5-(trifluoromethyl)phenyl)acetamide] registered an IC50 of 278 nM.

In turn, `Cc1cnc(Nc2ccc(CN)cc2)nc1CCc1ccccc1CC(N)=O` [Compound 27, 2-(2-(2-(2-((4-(aminomethyl)phenyl)amino)-5-methylpyrimidin-4-yl)ethyl)phenyl)acetamide] came in with an IC50 of 118 nM.

`COC(=O)NC1(c2ccc(Nc3ncc(C)c(CCc4ccccc4CC(N)=O)n3)cc2)CCC1` [Compound 29, methyl 1-(4-(4-(2-(2-amino-2-oxoethyl)phenethyl)-5-methylpyrimidin-2-ylamino)phenyl)cyclobutylcarbamate]: the midpoint of inhibition, the IC50, lay at 17 nM.

In turn, `Cc1cnc(Nc2cnn(C3CNC3)c2)nc1CCc1ccccc1CC(N)=O` [Compound 30, 2-(2-(2-(2-((1-(azetidin-3-yl)-^1H-pyrazol-4-yl)amino)-5-methylpyrimidin-4-yl)ethyl)phenyl)acetamide] displayed an IC50 of 9 nM.

For the compound `Cc1cnc(Nc2ccc(C3CNC3)cc2)nc1CCc1ccccc1CC(N)=O` [Compound 32, 2-(2-(2-(2-((4-(azetidin-3-yl)phenyl)amino)-5-methylpyrimidin-4-yl)ethyl)phenyl)acetamide], the IC50 amounted to 52 nM.

Consider `Cc1cnc(Nc2ccc(C(C)N)cc2)nc1CCc1ccccc1CC(N)=O` (stereo not drawn) [Compound 34, 2-(2-(2-(2-((4-(1-aminoethyl)phenyl)amino)-5-methylpyrimidin-4-yl)ethyl)phenyl)acetamide], for which the IC50 worked out at 71 nM.

Turning to `NC(=O)Cc1ccccc1CCc1nc(Nc2cnn(C3CCNCC3)c2)ncc1C(F)(F)F` [Compound 35, 2-(2-(2-(2-((1-(piperidin-4-yl)-^1H-pyrazol-4-yl)amino)-5-(trifluoromethyl)pyrimidin-4-yl)ethyl)phenyl)acetamide], the half-inhibitory concentration (IC50) was determined as 23 nM.

In turn, `CN1CCC(n2cc(Nc3ncc(C(F)(F)F)c(CCc4ccccc4CC(N)=O)n3)cn2)CC1` [Compound 36, 2-(2-(2-(2-((1-(1-methylpiperidin-4-yl)-^1H-pyrazol-4-yl)amino)-5-(trifluoromethyl)pyrimidin-4-yl)ethyl)phenyl)acetamide] showed an IC50 of 50 nM.

Consider `CC(N)c1cccc(Nc2ncc(Cl)c(CCc3ccccc3CC(N)=O)n2)c1` (stereo not drawn) [Compound 38, 2-(2-(2-(2-((3-(1-aminoethyl)phenyl)amino)-5-chloropyrimidin-4-yl)ethyl)phenyl)acetamide], for which 76 nM corresponded to half-maximal inhibition (IC50).

On to `CC(=O)NC(C)c1cccc(Nc2ncc(Cl)c(CCc3ccccc3CC(N)=O)n2)c1` (stereo not drawn) [Compound 39, 2-(2-(2-(2-((3-(1-acetamidoethyl)phenyl)amino)-5-chloropyrimidin-4-yl)ethyl)phenyl)acetamide], for which half-maximal inhibition (IC50) was put at 10 nM.

On to `CC(N)c1ccc(Nc2ncc(C(F)(F)F)c(CCc3ccccc3CC(N)=O)n2)cn1` (stereo not drawn) [Compound 40, 2-(2-(2-(2-((6-(1-Aminoethyl)pyridin-3-yl)amino)-5-(trifluoromethyl)pyrimidin-4-yl)ethyl)phenyl)acetamide], for which the IC50 turned out to be 187 nM.

In the case of `NC(=O)Cc1cccc(F)c1CCc1nc(Nc2ccc(C3CCNCC3)cc2)ncc1C(F)(F)F` [Compound 41], the IC50 is 26 nM. This IC50 lies about 7.2-fold lower than the previous one.
